US10113189B2, “Isolation and characterization of a novel pythium omega 3 desaturase with specificity to all omega 6 fatty acids longer than 18 carbon chains” (priority 2006, dated 2018)

Experiments:
[1] = system: ω-3 desaturase from Pythium irregulare; assay type: cell-based, S. cerevisiae; details: for desaturation by ω-3 desaturase from Pythium (in words): expression in yeast, exogenously supplied ω-6 fatty acids; for Conversion (%) / Product (%): yeast transformant pYES2-O3; for Conversion (%): conversion of ω-6 substrate into the corresponding ω-3 product; for Product (%): ω-3 product (ALA, SDA, ETA, EPA, DHA) of the fed substrate, 100 μM, 16° C., 4 days, GC
Protocol: (§1) The plasmids containing the full length O3 genes in the yeast expression vector pYES2.1/V5-His-TOPO were transformed into yeast S. cerevisiae. The positive transformants were selected for uracil auxotrophy on DOB-U agar plates. To characterize the ω-3 desaturase enzyme activity, positive clones and the control (yeast with pYES2.1 vector) were cultured overnight in DOB-U liquid medium at 28° C. and then grown in induction medium (DOB-U+Gal+Raf) containing 100 μM of various exogenously supplied fatty acid substrates at 16° C. for 4 days. The whole yeast cells expressing Pythium ω-3 genes were harvested by centrifugation and washed twice with distilled water. Then the yeast cells were directly transmethylated with methanolic HCl (3N) at 80° C. for 1 hour. The resultant methyl esters were extracted with hexane and analyzed by gas chromatography (GC). GC was carried out as described in WO 2005/083053.

[2] = system: control yeast pYES2 (yeast with pYES2.1 vector); assay: Production of ω-3 fatty acids from exogenous ω-6 fatty acids in the control yeast pYES2; assay type: cell-based, S. cerevisiae; details: ω-3 product (ALA, SDA, ETA, EPA, DHA) of the fed substrate, GC
Protocol: as §1

| Structure (SMILES) | desaturation by ω-3 desaturase from Pythium (in words) [1] | Conversion (%) [1] | Product (%) [1] | Product (%) [2] |
| --- | --- | --- | --- | --- |
| CCCCC/C=C\C/C=C\C/C=C\CCCCCCC(=O)O [DGLA, dihomo-γ-linolenic acid] | desaturates | 9.65% | 1.90% | 0% |
| CC/C=C\C/C=C\C/C=C\C/C=C\C/C=C\CCCCCC(=O)O [DPA, docosapentaenoic acid] |  | 2.01% | 0.20% | 0.03% |
| CCCCC/C=C\C/C=C\C/C=C\CCCCC(=O)O [GLA, γ-linolenic acid] | not able to desaturase | 0% | 0% | 0% |
| CCCCC/C=C\C/C=C\CCCCCCCC(=O)O [LA, linoleic acid] | not able to desaturase | 0% | 0% | 0% |
